Data on 18 compounds can be found in ChEMBL document CHEMBL3045278, “Anticonvulsant and sedative-hypnotic activity of some novel 3-[5-(4-substituted) phenyl-1,3,4-oxadiazole-2yl]-2-styrylquinazoline-4(3H)-ones” (Med Chem Res, 2010).

Calls of active or inactive are those of the source. The calls are words filed in the database; no cut-off is given here.

Data set [1] relates to Mus musculus. Put plainly: Neurotoxicity in Mus musculus albino (mouse) assessed as minimal motor impairment at 300 mg/kg, ip measured at 0.5 hr. The format is toxicity, organism-based. Further details: dose 300 mg/kg, route intraperitoneal. The conditions noted are these: in vivo.
In data set [2] the test system is Mus musculus. Put plainly: Anticonvulsant activity in Mus musculus albino (mouse) assessed as protection against maximal electroshock-induced seizures at 300 mg/kg, ip measured at 0.5 hr. The class given is functional, organism-based. The arrangement: dose 300 mg/kg.
For data set [3], the system named is Mus musculus. Put plainly: Behavioral activity in Mus musculus albino (mouse) assessed as inhibition of locomotion at 100 mg/kg, ip after 1 hr by actophotometric analysis relative to control. The class given is functional. The conditions noted are these: route intraperitoneal.
In data set [4] the test system is Mus musculus. Briefly: Anticonvulsant activity in Mus musculus albino (mouse) assessed as protection against maximal electroshock-induced seizures at 300 mg/kg, ip measured at 4 hr. The class given is functional, organism-based. The arrangement: dose 300 mg/kg.
In data set [5] the test system is Mus musculus. Put plainly: Neurotoxicity in Mus musculus albino (mouse) assessed as minimal motor impairment at 300 mg/kg, ip measured at 4 hr. The format is toxicity, organism-based. Further details: dose 300 mg/kg, route intraperitoneal. The conditions noted are these: in vivo.
Data set [6] has as its system Mus musculus. Briefly: Anticonvulsant activity in Mus musculus albino (mouse) assessed as protection against subcutaneous pentylenetetrazol-induced seizures at 300 mg/kg, ip measured at 4 hr. The arrangement: dose 300 mg/kg. The class given is functional, organism-based.
For data set [7], the species on record is Mus musculus. Briefly: Sedative-hypnotic activity in Mus musculus albino (mouse) assessed as increase in phenobarbitone-induced sleeping time. The class given is functional, organism-based.
Data set [8] deals with Mus musculus. Briefly: Anticonvulsant activity in Mus musculus albino (mouse) assessed as protection against subcutaneous pentylenetetrazol-induced seizures at 300 mg/kg, ip measured at 0.5 hr. Further details: dose 300 mg/kg. The class given is functional, organism-based.
The subject of data set [9] is Rattus norvegicus. Put plainly: Antidepressant activity in Rattus norvegicus Wistar (rat) assessed as immobility time at 100 mg/kg, ip after 60 min by forced swim pool test relative to control. The conditions noted are these: route intraperitoneal.
Data set [10] concerns Mus musculus. Put plainly: Anticonvulsant activity in ip dosed Mus musculus albino (mouse) assessed as protection against maximal electroshock-induced seizures measured at 0.5 hr. The format is functional. The conditions noted are these: read-out: MED. (In the maximal electroshock model the usual endpoint is tonic extension of the hind limbs.)
Data set [11] concerns Mus musculus. Put plainly: Anticonvulsant activity in ip dosed Mus musculus albino (mouse) assessed as protection against subcutaneous pentylenetetrazol-induced seizures measured at 0.5 hr. The conditions noted are these: read-out: MED. The class given is functional.
For data set [12], the system named is Mus musculus. Put plainly: Anticonvulsant activity in ip dosed Mus musculus albino (mouse) assessed as protection against subcutaneous pentylenetetrazol-induced seizures measured at 4 hr. The format is functional. The conditions noted are these: read-out: MED.
In data set [13] the test system is Mus musculus. Briefly: Anticonvulsant activity in ip dosed Mus musculus albino (mouse) assessed as protection against maximal electroshock-induced seizures measured at 4 hr. The format is functional. The conditions noted are these: read-out: MED.
For data set [14], the system named is Mus musculus. Briefly: Neurotoxicity in ip dosed Mus musculus albino (mouse) assessed as minimal motor impairment measured at 4 hr. The class given is toxicity, organism-based. The conditions noted are these: in vivo.
Data set [15] relates to Mus musculus. Put plainly: Neurotoxicity in ip dosed Mus musculus albino (mouse) assessed as minimal motor impairment measured at 0.5 hr. The conditions noted are these: in vivo. The format is toxicity, organism-based.
Data set [16] has as its system Rattus norvegicus. Briefly: Antidepressant activity in Rattus norvegicus Wistar (rat) assessed as immobility time at 25 mg/kg, ip after 60 min by forced swim pool test relative to control. The conditions noted are these: route intraperitoneal.
The test system of data set [17] is Mus musculus. Put plainly: Behavioral activity in Mus musculus albino (mouse) assessed as inhibition of locomotion at 25 mg/kg, ip after 1 hr by actophotometric analysis relative to control. The class given is functional. The conditions noted are these: route intraperitoneal.

One may read the inhibition in vivo as the drop in the measured response relative to a control, in per cent.

As to `COc1ccc(-c2nnc(-n3c(/C=C/c4ccc(C)cc4)nc4ccccc4c3=O)o2)cc1`, the Activity result in data set [1] and in [5] was “Non-toxic” each time. For the same compound, the outcome in [2], in data set [4], in data set [6], in [7] and in [8] was inactive. Moreover, the inhibition in vivo at 100 mg/kg in [3] amounted to 42%. In addition, the Time in data set [9] stood at 182.82 s.

`O=c1c2ccccc2nc(/C=C/c2ccccc2)n1-c1nnc(-c2ccc(Cl)cc2)o1`: the Activity result in data set [1] and in data set [5] was “Non-toxic” throughout. Besides, the outcome in [2], in [4], in [6], in [7] and in data set [8] was inactive. Moreover, the inhibition in vivo at 100 mg/kg in [3] stood at 38%. Further, the Time in data set [9] came to 217.93 s.

For `Cc1ccc(/C=C/c2nc3ccccc3c(=O)n2-c2nnc(-c3ccccc3)o2)cc1`, the Activity entry in [1] and in [5] was “Non-toxic” throughout. For the same compound, the outcome in [2], in data set [4], in data set [6], in [7] and in data set [8] was inactive. In addition, in data set [3], the inhibition in vivo at 100 mg/kg worked out at 47%. Moreover, the Time in data set [9] was 160.05 s.

On to `Cc1ccc(/C=C/c2nc3ccccc3c(=O)n2-c2nnc(-c3ccc(Cl)cc3)o2)cc1`, for which the Activity entry in data set [1] and in data set [5] was “Non-toxic” in each case. Moreover, the inhibition in vivo at 100 mg/kg in data set [3] was found to be 45%. For the same compound, the outcome in data set [4], in data set [6], in data set [7] and in [8] was inactive. Moreover, the minimal effective dose in data set [10] was 300 mg/kg. Further, in data set [9], the Time came to 135.18 s.

Turning to `CN(C)c1ccc(-c2nnc(-n3c(/C=C/c4ccc(Cl)cc4)nc4ccccc4c3=O)o2)cc1`, the minimal effective dose in data set [11] came out at 300 mg/kg; in data set [12], 300 mg/kg; in data set [13] it was 100 mg/kg; in [10] it was 100 mg/kg. For the same compound, in data set [3], the inhibition in vivo at 100 mg/kg is 49%. The outcome in data set [7] was inactive. The MTC in data set [14] and in data set [15] was 100 mg/kg in each case. Besides, the Time in [9] was found to be 121.21 s.

Take `Cc1ccc(/C=C/c2nc3ccccc3c(=O)n2-c2nnc(-c3ccc(C)cc3)o2)cc1`: the Activity entry in [1] and in data set [5] was “Non-toxic” in each case. The result in [2], in data set [4], in data set [6], in data set [7] and in data set [8] was inactive. Moreover, the inhibition in vivo at 100 mg/kg in data set [3] was 40%. Also, the Time in [9] is given as 163.21 s.

Turning to `O=c1c2ccccc2nc(/C=C/c2ccccc2)n1-c1nnc(-c2ccccc2)o1`, the Activity result in [1] and in [5] was “Non-toxic” throughout. Further, the outcome in data set [2], in data set [4], in data set [6], in data set [7] and in [8] was inactive. For the same compound, in data set [3], the inhibition in vivo at 100 mg/kg stood at 48%. The Time in data set [9] came to 113.14 s.

As to `COc1ccc(-c2nnc(-n3c(/C=C/c4ccc(Cl)cc4)nc4ccccc4c3=O)o2)cc1`, the Activity result in data set [1] and in data set [5] was “Non-toxic” throughout. In addition, the result in [2], in data set [4], in data set [6], in [7] and in data set [8] was inactive. In addition, the inhibition in vivo at 100 mg/kg in data set [3] came out at 50%. Also, in [9], the Time is on record as 184.36 s.

Regarding `CN(C)c1ccc(-c2nnc(-n3c(/C=C/c4ccccc4)nc4ccccc4c3=O)o2)cc1`, the Activity result in data set [1] and in data set [5] was “Non-toxic” each time. Also, the result in data set [2], in data set [4], in data set [6], in data set [7] and in data set [8] was inactive. In addition, in data set [3], the inhibition in vivo at 100 mg/kg came out at 30%. Further, the Time in data set [9] is given as 50.23 s.

In the case of `O=c1c2ccccc2nc(/C=C/c2ccc(Cl)cc2)n1-c1nnc(-c2ccc(Cl)cc2)o1`, the result in [2], in data set [4], in data set [6], in data set [7] and in data set [8] was inactive. The inhibition in vivo at 100 mg/kg in [3] was determined as 53%. In addition, the Activity entry in [5] is recorded as “Non-toxic”. Also, in [15], the MTC amounted to 100 mg/kg. In addition, the Time in data set [9] amounted to 100.12 s.

On to `Cc1ccc(-c2nnc(-n3c(/C=C/c4ccccc4)nc4ccccc4c3=O)o2)cc1`, for which the Activity result in data set [1] and in data set [5] was “Non-toxic” each time. In addition, the outcome in data set [2], in [4], in data set [6], in [7] and in data set [8] was inactive. In addition, in data set [3], the inhibition in vivo at 100 mg/kg was found to be 48%. Besides, the Time in data set [9] is on record as 152.39 s.

With `COc1ccc(-c2nnc(-n3c(/C=C/c4ccccc4)nc4ccccc4c3=O)o2)cc1`, the outcome in data set [2], in [4], in data set [6], in data set [7] and in data set [8] was inactive. For the same compound, the inhibition in vivo at 100 mg/kg in [3] was determined as 41%. Besides, in data set [5], the Activity result is reported as “Non-toxic”. In addition, in data set [15], the MTC was 300 mg/kg. In addition, the Time in [9] turned out to be 163.75 s.

Turning to `Cc1ccc(/C=C/c2nc3ccccc3c(=O)n2-c2nnc(-c3ccc(N(C)C)cc3)o2)cc1`, the outcome in data set [2], in [4], in data set [6], in data set [7] and in data set [8] was inactive. For the same compound, the inhibition in vivo at 100 mg/kg in data set [3] was determined as 37%. In addition, the Activity result in [5] is on record as “Non-toxic”. The MTC in [15] was determined as 100 mg/kg. In data set [9], the Time is reported as 125.42 s.

For `O=c1c2ccccc2nc(/C=C/c2ccc(Cl)cc2)n1-c1nnc(-c2ccccc2)o1`, the Activity result in [1] and in data set [5] was “Non-toxic” in each case. The outcome in [2], in data set [4], in data set [6], in [7] and in data set [8] was inactive. In [3], the inhibition in vivo at 100 mg/kg is 51%. The Time in [9] turned out to be 151.11 s.

Take `Cc1ccc(-c2nnc(-n3c(/C=C/c4ccc(Cl)cc4)nc4ccccc4c3=O)o2)cc1`: the Activity result in data set [1] and in [5] was “Non-toxic” in each case. In addition, the outcome in [2], in data set [4], in [6], in data set [7] and in data set [8] was inactive. Also, the inhibition in vivo at 100 mg/kg in [3] was found to be 56%. The Time in data set [9] turned out to be 150.76 s.

Regarding `CCCC(CCC)C(=O)[O-].[Na+]` [VALPROATE SODIUM], the Activity result in data set [1] and in data set [5] was “Non-toxic” throughout. The result in [2], in data set [4] and in [6] was inactive. Besides, the minimal effective dose in [11] was 300 mg/kg.

With `NC(=O)N1c2ccccc2C=Cc2ccccc21` [CARBAMAZEPINE], in [16], the Time came out at 240.3 s. For the same compound, the minimal effective dose in data set [11] amounted to 100 mg/kg; in data set [12] it was 300 mg/kg; in data set [13], 100 mg/kg; in [10] it was 30 mg/kg. Further, the MTC was 300 mg/kg in data set [14] and 100 mg/kg in data set [15].

For `O=C1NC(=O)C(c2ccccc2)(c2ccccc2)N1` [PHENYTOIN], the inhibition in vivo at 25 mg/kg in [17] was found to be 70%. For the same compound, the minimal effective dose in data set [13] and in data set [10] was 30 mg/kg throughout. In addition, the outcome in data set [6] and in data set [8] was inactive. Moreover, the MTC in [14] and in [15] was 100 mg/kg in each case.
